Source: patent publication US20260272879A1, “ANION-BINDING AROMATIC OLIGOAMIDE MACROCYCLES AND METHODS OF MAKING AND USING SAME” (The Research Foundation for The State University of New York, priority 2023, published 2026)
Where two headings read alike, the source gives them in different places.

Experiments:
[1] = 1H NMR titration, binding of chloride; conditions: DMSO-d6:CDCl3 (15:85, v/v), 25° C., NMR titration (protons a and b)
Description: ^1H NMR Titration methods. Titrations of 4c and 6c with anions as their tetra-n-butyl ammonium (TBA) salts were carried out by ^1H NMR (400 MHz on Bruker-400) at room temperature (298 K). 0.5 mL of receptor 4c (5.0 mM) or 6c (2.0 mM) were prepared in the rubber-cap NMR tubes. Aliquots of concentrated TBACl or TBAI solution (50 mM for the titration of 4c and 20 mM for the titration of 6c) containing the same amount of receptors were added into the receptor solution using 20 microliter pipette. An initial ^1H NMR spectrum was collected and additional spectra were obtained after each injection of TBACl or TBAI solution. All titration ^1H NMR spectra were stacked together and the chemical shifts of amide protons were then fitted to the proposed 1:1 binding model using BindFit v0.5 (http://app.supramolecular.org/bindfit/).
Anion binding with four amides, i.e., L1mer-L4mer, was studied in the mixed solvents of CD3CN/CDCl3 (1/9, v/v) by titrating an amide host with 0 to 5 equivalents of tetrabutylammonium (n-Bu4N^+) salt of the corresponding anion. The binding of chloride, bromide, iodide, and nitrate was examined with the four amides in CDCl3 containing 10% CD3CN. The titration data were collected by monitoring the changes in chemical shifts of the backbone amide protons and the inner aromatic protons with varying ratios of the anion guests. Job plots indicate that these linear oligoamides and their anion guests bind in a 1:1 stoichiometry.
The binding of anions by macrocycle 7c was examined in CH3CN/CHCl3 (6/4, v/v) and in DMSO by titrating with various equivalents of the salts of chloride, iodide. nitrate, and dihydrogen phosphate, with tetrabutylammonium (n-Bu4N^+) being the counterion ion. Following the changes in the chemical shifts of backbone amide protons and “inner” aromatic protons allowed the determination of binding constants.
^1H NMR titration methods. Titrations of c5a and c5b with anions as their tetra-n-butylammonium (TBA), tetra-ethylammonium (TEA) and tetra-methylammonium (TMA) salts were carried out by ^1H NMR (400 MHz) at 25° C. […]

[2] = Isothermal titration calorimetry (ITC), IO4^−; format: binding; conditions: 25° C.
Description: (§1) Isothermal titration calorimetry (ITC) experiments were performed using a MicroCal VP-ITC. ITC experiments were conducted by adding ~1.5 mL of a solution containing c5a to the sample cell. Followed by titrating 10 μL aliquots of a solution containing the corresponding TBA·X salt (~10-14× concentration of c5a solution) from the syringe into the sample cell. Heats of dilution were obtained by titrating 10 μL aliquots of the TBA·X solution from the syringe into the sample cell in the absence of c5a. The heats of dilution were subtracted from the raw data. ITC data processing and curve fitting was done using the Origin program (MicroCal).
(§2) Two-step competition ITC experiments for determining the Ka of c5a and iodide. In CH3CN:CHCl3 (5:95, v/v), the binding affinity of c5a for I^− was too high to be determined with direct NMR or ITC titration. Instead, two-step competition ITC experiments with Cl^− as the competitor were performed.

[3] = Isothermal titration calorimetry (ITC), BF4^−; format: binding; conditions: DMSO:CHCl3 (5:95, v/v), 25° C.
Description: as §1, §2

[4] = EC50 of halide transport, HPTS assay; format: biochemical; conditions: POPC LUVs, entrapped HPTS
Description: The time course of the emission intensity of intravesicular HPTS, It, was obtained first by ratiometric analysis (Rt=It,450/It,405), followed by normalization according to equation (S1),
where R0=Rt at t=100 s, before the addition of c5a; R∞=Rt at t=350 s upon the addition of Triton X-100. Normalized intensity ratio at 300 s just before addition of Triton X-100 was defined as the transmembrane activity (Y) which was analyzed with the Hill equation (S2) to give effective concentration EC50 and the Hill coefficient n, (S2)
where Y0 is Y in absence of carrier, […], and c is the carrier concentration in a cuvette.

[5] = 1H NMR titration, binding of ClO4^−; conditions: DMSO-d6:CDCl3 (15:85, v/v), 25° C.
Description: ^1H NMR titration methods. Titrations of c5a and c5b with anions as their tetra-n-butylammonium (TBA), tetra-ethylammonium (TEA) and tetra-methylammonium (TMA) salts were carried out by ^1H NMR (400 MHz) at 25° C. 0.4 mL of corresponding hosts solutions were prepared in the rubber-cap NMR tubes. Aliquots of concentrated guest solution containing hosts were added into the NMR tubes using 20 microliter pipette. An initial ^1H NMR spectrum was collected and additional spectra were obtained after each injection of guest solution. All titration ^1H NMR spectra were stacked together and the chemical shifts of the internal aromatic CH proton were then fitted to 1:1 binding model using BindFit v0.5 (http://app.supramolecular.org/bindfit/) to evaluate binding constants to anions.

CCCCCCCCOCC(C)(C)C(=O)Nc1ccc2cc1C(=O)Nc1ccc(NC(=O)C(C)(C)COCCCCCCCC)c(c1)C(=O)Nc1ccc(NC(=O)C(C)(C)COCCCCCCCC)c(c1)C(=O)Nc1ccc(NC(=O)C(C)(C)COCCCCCCCC)c(c1)C(=O)Nc1ccc(NC(=O)C(C)(C)COCCCCCCCC)c(c1)C(=O)N2 [c5a]
Association constant Ka, 1:1 complex with Cl^− [1]: (4.31 ± 0.12) × 10^3 M^−1 | Association constant Ka, 1:1 complex with IO4^− ([2]; CH3CN:CHCl3 (5:95, v/v)): (2.54 ± 0.22) × 10^7 M^−1 | Association constant Ka, 1:1 complex with IO4^− ([2]; DMSO:CHCl3 (5:95, v/v)): (1.72 ± 0.05) × 10^5 M^−1 | Association constant Ka, 1:1 complex with BF4^− [3]: (8.70 ± 0.40) × 10^5 M^−1 | EC50 ([4]; c5a 0.05 to 10 μM, base pulse, read-out: EC50 for the transport of Br^−): 4.11 µM | EC50 ([4]; c5a 0.05 to 10 μM, base pulse, read-out: EC50 for the transport of Cl^−): 0.31 µM | EC50 ([4]; c5a up to 10 μM, too large to be measured, read-out: EC50 for the transport of I^−): > 10 µM | Association constant Ka, 1:1 complex with ClO4^− ([5]; single NMR titration (protons a and b)): (5.74 ± 0.51) × 10^4 M^−1 | Association constant Ka, 1:1 complex with ClO4^− ([5]; triplicate NMR titrations (footnote c)): (9.60 ± 0.76) × 10^4 ^c M^−1
